Laboratory results from US12589158B2 (priority 2022, dated 2026).
Read-outs that look alike come from different tables or passages of the source.

What was measured:
[1] = Pharmacokinetics following single administration in SD rat; design: species or system SD rats; settings: in vivo, sc, 50 nmol/kg
Protocol: The compound is administrated to male SD rats (230-268 g, n=3) at a dose of 50.0 nmol/kg (s.c.) or 25.0 nmol/kg (i.v.). […] 30.0 μL of thawed plasma sample is taken. 150 μL of acetonitrile solution (containing 5 ng mL^−1 Verapamil, 50 ng·mL^−1 Glibenclamide, 200 ng·mL^−1 Tolbutamide and 200 ng·mL^−1 Diclofenac) are added to precipitate protein. The mixture is vortexed for 5 minutes, and centrifuged at 3700 rpm for 8 minutes. 70.0 μL of the supernatant is taken, into which 70.0 μL of 0.5% aqueous formic acid solution is added. The mixture is vortexed for 5 minutes. 15 μL of the mixture solution is sampled and injected into the LC-MS/MS to determine the drug concentration in plasma. 20.0 μL of thawed plasma sample is taken. 60 μL of acetonitrile solution (containing 5 ng mL^−1 Verapamil, 50 ng·mL^−1 Glibenclamide, 200 ng·mL^−1 Tolbutamide and 200 ng·mL^−1 Diclofenac) are added to precipitate protein. […] The mixture is vortexed for 10 minutes. 10.0 μL of the mixture solution is sampled and injected into the LC-MS/MS to determine the drug concentration in plasma. 30.0 μL of thawed plasma sample is taken. 150 μL of acetonitrile solution (containing 5 ng mL^−1 Verapamil, 50 ng mL^−1 Glibenclamide, 200 ng·mL^−1 Tolbutamide and 200 ng·mL^−1 Diclofenac) are added to precipitate protein. The mixture is vortexed for 5 minutes, and centrifuged at 3700 rpm for 8 minutes. 70.0 μL of the supernatant is taken, into which 70.0 μL of 0.5% aqueous formic acid solution is added. The mixture is vortexed for 5 minutes. 10.0 μL of the mixture solution is sampled and injected into the LC-MS/MS to determine the drug concentration in plasma.

[2] = Pharmacokinetics in C57 mice; settings: in vivo
Protocol: After subcutaneous or intravenous administration to C57 mice, plasma is collected and the drug concentration in plasma is determined to illustrate the in vivo pharmacokinetic properties of the compound according to the present invention. […] 20.0 μL of thawed plasma sample is taken. 20 μL of 50% aqueous methanol solution (containing 100 ng mL^−1 internal standard) and 60 μL of acetonitrile are added sequentially to precipitate protein. The mixture is vortexed for 5 minutes, and centrifuged at 3700 rpm for 8 minutes. 50.0 μL of the supernatant is taken, into which 50.0 μL of 0.5% aqueous formic acid solution is added. The mixture is vortexed for 5 minutes. 50 μL of the mixture solution is sampled and injected into the LC-MS/MS to determine the drug concentration in plasma.

[3] = Pharmacokinetics in cynomolgus monkeys; settings: cynomolgus monkey, in vivo
Protocol: After subcutaneous or intravenous administration to cynomolgus monkeys, plasma is collected and the drug concentration in plasma is determined to illustrate the in vivo pharmacokinetic properties of the compound according to the present invention. The compound is dissolved in 1.4% PG in 8 mM Na2HPO4 Buffer (pH 7.39), and filtered through a filter membrane (PTFE, 0.45 μm) to obtain 25 and 12.5 nmol/mL solution of the compound respectively. The obtained solutions are administered to cynomolgus monkeys (4-8 kg) at a dose of 25 nmol/kg subcutaneously (s.c.) or 12.5 nmol/kg intravenously (i.v.). […] The blood samples are centrifuged at 2200 g for 10 minutes to obtain a plasma, which is stored at −90° C. to −60° C. for further analysis and assay.
70.0 μL of thawed plasma sample is taken. 70 μL of acetonitrile (containing 1 ng/ml of the internal standard) is added to precipitate protein. The mixture is vortexed for 1 minute, and centrifuged at 14000 rpm for 10 minutes. 60.0 μL of the supernatant is taken, into which 60.0 μL of 0.5% aqueous formic acid solution is added. The mixture is vortexed for 5 minutes. 10 μL of the mixture solution is sampled and injected into the LC-MS/MS to determine the drug concentration in plasma.
Based on the drug concentration in plasma of the compounds in the cynomolgus monkeys, the pharmacokinetic parameters are calculated by applying the software Winnolin 8.2 in a non-compartmental model, and the results are shown in Table 9 and Table 10 below.

[4] = Pharmacokinetics in beagle dogs; type: in vivo; settings: 0.05 mg/kg
Protocol: After subcutaneous administration to beagle dogs, plasma is collected and the drug concentration in plasma is determined to illustrate the in vivo pharmacokinetic properties of the compound according to the present invention. The compound of the present invention is administered to a beagle dog (7-9 kg) at a dose of 0.05 mg/kg subcutaneously (s.c.). About 500 μL of whole blood is collected from the saphenous vein into an EDTA-K2 anticoagulant tube at predose, 0.5 hours, 1 hour, 2 hours, 6 hours, 10 hours, 24 hours, 48 hours, 72 hours and 96 hours, respectively. The blood samples are centrifuged at 3000 g and at 2° C. to 8° C. for 10 minutes to obtain plasma, which is stored at −90° C. to −60° C. for further analysis and assay.
20.0 μL of thawed plasma sample is taken. […] Then 120 μL of 0.1% formic acid methanol is added to precipitate the protein. The mixture is vortexed for 5 minutes, and centrifuged at 4815 g for 10 minutes. 100.0 μL of the supernatant is taken, into which 100 μL of 0.5% aqueous formic acid solution is added. The mixture is vortexed for 5 minutes. 10 μL of the mixture solution is sampled and injected into the LC-MS/MS to determine the drug concentration in plasma.
Based on the drug concentration in plasma of the compound in the beagle dogs, the pharmacokinetic parameters are calculated by applying the software Winnolin 8.3 in a non-compartmental model.

[5] = type: in vivo; settings: rat, in vivo, male SD rats
Protocol: (§1) 77 SD male rats (SPF grade) are selected and randomly divided into 10 groups based on body weight. Group 1 is the vehicle control group, including 5 animals. […] Group 5 to Group 7 are the groups administrated with the test substance 1; and Group 8 to Group 10 are the groups administrated with the test substance 2, each group including 8 animals, wherein 5 animals for primary test, and 3 animals for toxicokinetics test, and the administration dose is 1, 3 and 10 mg/kg respectively. Each of the above groups is continuously administered twice a week for 2 weeks (administrating at Day 1, Day 5, Day 8, Day 12 and Day 15).
(§2) During the experiment, the cage condition monitoring, detailed clinical observations, determination of the food consumption, determination of body weight, measurement of the blood biochemical and hematology indicator, investigation of the gross anatomy, weighing of the organ, studying on toxicokinetic are performed on all the groups of the animals.
(§3) Original data during each time period is tabulated. The average values and standard deviations and/or group change are calculated for each assay endpoint based on the group and sex. For each endpoint, the administrated group will be compared with the control group in the following aspect. A logarithmic conversion is performed to the endpoint data as desired prior to the start of the specific analyses.

[6] = system: SD male rats; type: in vivo; settings: for Toxicokinetic: Cmax and AUC versus dose: male SD rats, 1, 3, 10 mg/kg; for Toxicokinetic: accumulation: continuously administered twice a week for 2 weeks; for Safety Window (based on dosage): rat MTD for 2 weeks vs efficacy dose in db/db mice
Protocol: as §1, §2, §3

[7] = in vivo
[8] = continuously administered twice a week for 2 weeks
[9] = male SD rats, twice a week for 2 weeks, 1, 3, 10 mg/kg

CC[C@H](C)[C@H](NC(=O)C(C)(C)NC(=O)[C@H](Cc1ccc(O)cc1)NC(=O)[C@H](CC(=O)O)NC(=O)[C@H](CO)NC(=O)[C@@H](NC(=O)C(C)(Cc1ccccc1)NC(=O)[C@@H](NC(=O)CNC(=O)[C@H](CCC(=O)O)NC(=O)C(C)(C)NC(=O)[C@@H](N)Cc1ccc(O)cc1)[C@@H](C)O)[C@@H](C)O)C(=O)NC(C)(C)C(=O)N[C@@H](CC(C)C)C(=O)N[C@@H](CC(=O)O)C(=O)N[C@@H](CCCCN)C(=O)N[C@@H](CCC(N)=O)C(=O)N[C@@H](C)C(=O)N[C@@H](CCC(N)=O)C(=O)N[C@@H](C)C(=O)N[C@@H](CCC(=O)O)C(=O)N[C@@H](Cc1ccccc1)C(=O)N[C@H](C(=O)N[C@@H](CCCCNC(=O)COCCOCCNC(=O)COCCOCCNC(=O)COCCOCCNC(=O)CC[C@H](NC(=O)CCCCCCCCCCCCCCCCCCCCC(=O)O)C(=O)O)C(=O)N[C@@H](Cc1c[nH]c2ccccc12)C(=O)N[C@@H](CC(C)C)C(=O)N[C@@H](CC(C)C)C(=O)N[C@@H](CCCCN)C(=O)NCC(=O)NCC(=O)N1CCC[C@H]1C(=O)N[C@@H](CO)C(=O)N[C@@H](CO)C(=O)NCC(=O)N[C@@H](C)C(=O)N1CCC[C@H]1C(=O)N1CCC[C@H]1C(=O)N1CCC[C@H]1C(=O)N[C@@H](CO)C(=O)N[C@@H](CCCCN)C(N)=O)C(C)C (stereo partly shown) [P016]
MRT inf [1]: 31.1 ± 1 h
MRT last [1]: 28.1 ± 1.12 h
T1/2 [1]: 14.1 ± 0.153 h
MRT inf ([2]; mouse, iv): 26.6 h
MRT last ([2]; mouse, iv): 19.9 h
MRT inf ([2]; mouse, sc): 35.9 h
MRT last ([2]; mouse, sc): 26 h
MRT inf ([3]; iv, 12.5 nmol/kg): 72.9 ± 10.9 h
MRT last ([3]; iv, 12.5 nmol/kg): 65.3 ± 8.85 h
T1/2 ([3]; iv, 12.5 nmol/kg): 59.81 ± 8.95 h
MRT inf ([3]; sc, 25 nmol/kg): 101 ± 19.2 h
MRT last ([3]; sc, 25 nmol/kg): 96.5 ± 15.9 h
T1/2 ([3]; sc, 25 nmol/kg): 60.40 ± 12.80 h
AUC(0-t) ([4]; beagle dogs, single subcutaneous administration, plasma): 29925 ng·h/mL
MRT inf ([4]; dog, in vivo, sc): 108 ± 23.2 h
MRT last ([4]; dog, in vivo, sc): 44.8 ± 4.17 h
T1/2 ([4]; dog, in vivo, sc): 69.32 h
MTD ([5]; MTD for 2 weeks, twice a week): 1.92 µmol/kg
MTD [5, 8]: > 10 mg/kg
Toxicokinetic: Cmax and AUC versus dose [6]: increase nearly proportionally to the dose
Toxicokinetic: accumulation ([6]; male SD rats): no substantial accumulation
Food Intake [6, 9]: dose-dependent decrease
Gross Anatomy [6, 9]: no abnormalities are found
Safety Window (based on dosage) [6]: 1282
heart rate recovery time [7]: 72 to 120 h
increase in HR [7]: lower than that for Tirepatide

CC[C@H](C)[C@H](NC(=O)[C@H](CC(C)C)NC(=O)[C@H](Cc1c[nH]c2ccccc12)NC(=O)[C@H](CCC(N)=O)NC(=O)[C@@H](NC(=O)[C@H](Cc1ccccc1)NC(=O)[C@H](C)NC(=O)[C@H](CCCCNC(=O)COCCOCCNC(=O)COCCOCCNC(=O)CC[C@H](NC(=O)CCCCCCCCCCCCCCCCCCC(=O)O)C(=O)O)NC(=O)[C@H](CCC(N)=O)NC(=O)[C@H](C)NC(=O)[C@@H](NC(=O)[C@H](CCCCN)NC(=O)[C@H](CC(=O)O)NC(=O)[C@H](CC(C)C)NC(=O)C(C)(C)NC(=O)[C@@H](NC(=O)[C@H](CO)NC(=O)[C@H](Cc1ccc(O)cc1)NC(=O)[C@H](CC(=O)O)NC(=O)[C@H](CO)NC(=O)[C@@H](NC(=O)[C@H](Cc1ccccc1)NC(=O)[C@@H](NC(=O)CNC(=O)[C@H](CCC(=O)O)NC(=O)C(C)(C)NC(=O)[C@@H](N)Cc1ccc(O)cc1)[C@@H](C)O)[C@@H](C)O)[C@@H](C)CC)[C@@H](C)CC)C(C)C)C(=O)N[C@@H](C)C(=O)NCC(=O)NCC(=O)N1CCC[C@H]1C(=O)N[C@@H](CO)C(=O)N[C@@H](CO)C(=O)NCC(=O)N[C@@H](C)C(=O)N1CCC[C@H]1C(=O)N1CCC[C@H]1C(=O)N1CCC[C@H]1C(=O)N[C@@H](CO)C(N)=O [Tirzepatide]
AUC(0-inf) ([1]; male, SD): 3.67 ± 1.19 µM·h
AUC(0-t) ([1]; male, SD): 3.61 ± 1.2 µM·h
Cmax ([1]; male, SD): 128 ± 42.8 nM
MRT inf ([1]; male, SD): 20.3 ± 0.755 h
MRT last ([1]; male, SD): 19 ± 0.265 h
Tmax ([1]; male, SD): 7.33 ± 1.15 h
half-life ([1]; male, SD): 11.4 ± 1.79 h
AUC(0-inf) ([2]; C57, mouse, iv): 12800 ng·h/mL
AUC(0-t) ([2]; C57, mouse, iv): 12700 ng·h/mL
C0 ([2]; C57, mouse, iv): 1900 ng/mL
MRT inf ([2]; C57, mouse, iv): 12 h
MRT last ([2]; C57, mouse, iv): 11.4 h
half-life ([2]; C57, mouse, iv): 10.5 h
AUC(0-inf) ([2]; C57, mouse, sc): 19700 ng·h/mL
AUC(0-t) ([2]; C57, mouse, sc): 19400 ng·h/mL
Cmax ([2]; C57, mouse, sc): 871 ng/mL
MRT inf ([2]; C57, mouse, sc): 15.3 h
MRT last ([2]; C57, mouse, sc): 14.5 h
Tmax ([2]; C57, mouse, sc): 6 h
half-life ([2]; C57, mouse, sc): 9.21 h
AUC(0-inf) ([3]; iv, 12.5 nmol/kg): 58500 ± 11900 ng·h/mL
AUC(0-t) ([3]; iv, 12.5 nmol/kg): 57600 ± 11800 ng·h/mL
C0 ([3]; iv, 12.5 nmol/kg): 1170 ± 160 ng/mL
MRT inf ([3]; iv, 12.5 nmol/kg): 74.3 ± 8.76 h
MRT last ([3]; iv, 12.5 nmol/kg): 68.3 ± 8.61 h
half-life ([3]; iv, 12.5 nmol/kg): 59.5 ± 5.22 h
AUC(0-inf) ([3]; sc, 25 nmol/kg): 150000 ± 39100 ng·h/mL
AUC(0-t) ([3]; sc, 25 nmol/kg): 148000 ± 38200 ng·h/mL
Cmax ([3]; sc, 25 nmol/kg): 1300 ± 300 ng/mL
MRT inf ([3]; sc, 25 nmol/kg): 105 ± 7.58 h
MRT last ([3]; sc, 25 nmol/kg): 99.6 ± 6.26 h
Tmax ([3]; sc, 25 nmol/kg): 22.7 ± 10.1 h
half-life ([3]; sc, 25 nmol/kg): 62.5 ± 6.07 h
MTD ([5]; MTD for 2 weeks, twice a week): 2.08 µmol/kg
MTD [5, 8]: > 10 mg/kg
Toxicokinetic: Cmax and AUC versus dose [6]: increase nearly proportionally to the dose
Toxicokinetic: accumulation ([6]; male SD rats): no substantial accumulation
Safety Window (based on dosage) [6]: 416
Safety Window (based on exposure AUClast) ([6]; rat, in vivo): 130
dose at which decrease of the body weight is observed after the first administration ([6]; rat, in vivo): ≥ 3 mg/kg
heart rate recovery time [7]: > 120 h
